# Results from patent US11371055B2, “Herbicide resistance genes” (CORTEVA AGRISCIENCE LLC, priority 2005, dated 2022).
# How the values were obtained:
# wildtype KY160 tobacco = experiment: Cross tolerance test, wildtype tobacco; format: in vivo, Nicotiana tabacum
# From the text: Two to four T0 individuals surviving high rates of 2,4-D and fluroxypyr were saved from each event and allowed to self fertilize in the greenhouse to give rise to T1 seed. The T1 seed was stratified, and sown into selection trays much like that of Arabidopsis (Example 7.4), followed by selective removal of untransformed nulls in this segregating population with 560 g ai/ha glufosinate (PAT gene selection). Survivors were transferred to individual 3-inch pots in the greenhouse. These lines provided high levels of resistance to 2,4-D in the T0 generation. Improved consistency of response is anticipated in T1 plants not having come directly from tissue culture. These plants were compared against wildtype KY160 tobacco. All plants were sprayed with a track sprayer set at 187 L/ha. The plants were sprayed from a range of 140-2240 g ac/ha 2,4-D dimethylamine salt (DMA), 70-1120 g ace/ha triclopyr or 35-560 g ae/ha fluroxypyr. All applications were formulated in water. Each treatment was replicated 2-4 times. Plants were evaluated at 3 and 14 days after treatment. Plants were assigned injury rating with respect to stunting, chlorosis, and necrosis. The T1 generation is segregating, so some variable response is expected due to difference in zygosity.
# [1] = system: AAD-12 (v1) (pDAS1580) T2 tobacco plants; experiment: Auxinic herbicide cross tolerance of stacked tobacco, AAD-12 T2; format: in vivo, Nicotiana tabacum
# Description: (§1) Homozygous AAD-12 (v1) (pDAS1580) and AAD-1 (v3) (pDAB721) plants (see PCT/US2005/014737 for the latter) were both reciprocally crossed and F1 seed was collected. The F1 seed from two reciprocal crosses of each gene were stratified and treated 4 reps of each cross were treated under the same spray regimen as used for the other testing with one of the following treatments: 70, 140, 280 g ac/ha fluroxypyr (selective for the AAD-12 (v1) gene); 280, 560, 1120 g ae/ha R-dichloroprop (selective for the AAD-1 (v3) gene); or 560, 1120, 2240 g ae/ha 2,4-D DMA (to confirm 2,4-D tolerance). Homozygous T2 plants of each gene were also planted for use as controls. Plants were graded at 3 and 14 DAT.
# [2] = system: wild-type canola (Nex710); experiment: Field tolerance of canola, wild-type; format: in vivo, Brassica napus; details: for % Visual Injury at 14 DAT: Wild Type (Nex710)
# Description: Field level tolerance trial was conducted on two AAD-12 (v1) events 3759(20)018.001 and 3759(18)030.001 and a wild-type canola (Nex710) in Fowler, Ind. The experimental design was a randomized complete block design with 3 replications. Herbicide treatments were 2,4-D (dimethylamine salt) at 280, 560, 1120, 2240 and 4480 g ac/ha, triclopyr at 840 g ae/ha, fluroxypyr at 280 g ae/ha and an untreated control. Within each herbicide treatment, single 20 ft row/event for event 3759(18)030.0011, 3759(18)018.001 and wild-type line (Nex710) were planted with a 4 row drill on 8 inch row spacing. Herbicide treatments were applied when canola reached the 4-6 leaf stage using compressed air backpack sprayer delivering 187 L/ha carrier volume at 130-200 kpa pressure. Visual injury ratings were taken at 7, 14 and 21 days after application.
# [3] = system: AAD-12 x AAD-1 F1 cross tobacco; experiment: Auxinic herbicide cross tolerance of stacked tobacco, F1 cross; format: in vivo, Nicotiana tabacum; details: AAD-12 (v1) x AAD (v3) F1
# Description: as §1
# [4] = system: wild-type tobacco line (KY160); experiment: Field tolerance of tobacco, wild-type line; format: in vivo, Nicotiana tabacum; details: for injury: 14 DAT; for Average % Injury across locations at 14 DAT: Wild type
# Description: Field level tolerance trials were conducted on three AAD-12 (v1) lines (events pDAS1580-[1]-018.001, pDAS1580-[1]-004.001 and pDAS1580-[1]-020.016) and one wild-type line (KY160) at field stations in Indiana and Mississippi. Tobacco transplants were grown in the greenhouse by planting T1 seed in 72 well transplant flats (Hummert International) containing Metro 360 media according to growing conditions indicated above. The null plants were selectively removed by Liberty selection as previously described. The transplant plants were transported to the field stations and planted at either 14 or 24 inches apart using industrial vegetable planters. Drip irrigation at the Mississippi site and overhead irrigation at the Indiana site were used to keep plants growing vigorously.
# The experimental design was a split plot design with 4 replications. The main plot was herbicide treatment and the sub-plot was tobacco line. The herbicide treatments were 2,4-D (dimethylamine salt) at 280, 560, 1120, 2240 and 4480 g ac/ha, triclopyr at 840 g ae/ha, fluroxypyr at 280 g ac/ha and an untreated control. Plots were one row by 25-30 ft. Herbicide treatments were applied 3-4 weeks after transplanting using compressed air backpack sprayer delivering 187 L/ha carrier volume at 130-200 kpa pressure. Visual rating of injury, growth inhibition, and epinasty were taken at 7, 14 and 21 days after treatment.
# [5] = system: AAD-12 (v1) pDAB4101 corn events (4101(0)003.R.003.AF and 4101(0)005.R001.AF); experiment: Field tolerance of corn: visual injury and brace root injury, AAD-12 events; format: in vivo, Zea mays
# Description: Seeds were planted with cone planter on 40-inch row spacing at Wayside and 30 inch spacing at Fowler. […] Herbicide treatments were 2,4-D (dimethylamine salt) at 1120, 2240 and 4480 g ae/ha, triclopyr at 840 g ae/ha, fluroxypyr at 280 g ae/ha and an untreated control. The AAD-12 (v1) events contained the AHAS gene as a selectable marker. The F2 corn events were segregating so the AAD-12 (v1) plants were treated with imazethapyr at 70 g ae/ha to remove the null plants. Herbicide treatments were applied when corn reached the V6 stage using compressed air backpack sprayer delivering 187 L/ha carrier volume at 130-200 kpa pressure. […]
# [6] = 2× rate of triclopyr (840 g ae/ha), 14 DAT
compound,measurement,setting,value
"CNC.O=C(O)COc1ccc(Cl)cc1Cl [2,4-D DMA]",Average % Injury of Replicates 14 DAT,wildtype KY160 tobacco; 140 g ae/ha,45%
same,Average % Injury of Replicates 14 DAT,wildtype KY160 tobacco; 560 g ae/ha,60%
same,Average % Injury of Replicates 14 DAT,wildtype KY160 tobacco; 2240 g ae/ha,73%
"O=C(O)COc1ccc(Cl)cc1Cl [2,4-D, 2,4-dichlorophenoxyacetic acid]",Average % injury 14 DAT,[1]; 560 g ae/ha,0%
same,Average % injury 14 DAT,[1]; 1120 g ae/ha,0%
same,Average % injury 14 DAT,[1]; 2240 g ae/ha,0%
same,visual injury,"[2]; 2,4-D at 2240 g ae/ha (4× rate), 14DAT",72%
same,% Visual Injury at 14 DAT,[2]; 280 GM AE/HA,0 e %
same,% Visual Injury at 14 DAT,[2]; 560 GM AE/HA,15 d %
same,% Visual Injury at 14 DAT,[2]; 1120 GM AE/HA,33 bc %
same,% Visual Injury at 14 DAT,[2]; 2240 GM AE/HA,48 a %
same,Average % injury 14 DAT,[3]; 560 g ae/ha,0%
same,Average % injury 14 DAT,[3]; 1120 g ae/ha,0%
same,Average % injury 14 DAT,[3]; 2240 g ae/ha,0%
same,injury,"[4]; 2,4-D at 560 g ae/ha (1× field application rate)",63%
same,Average % Injury across locations at 14 DAT,[4]; 280 GM AE/HA,48%
same,Average % Injury across locations at 14 DAT,[4]; 560 GM AE/HA,63%
same,Average % Injury across locations at 14 DAT,[4]; 1120 GM AE/HA,78%
same,Average % Injury across locations at 14 DAT,[4]; 2240 GM AE/HA,87%
same,Average % Injury across locations at 14 DAT,[4]; 4480 GM AE/HA,92%
same,visual injury,"[5]; 2,4-D at the 1, 2 and 4× rates, V6 stage, 14 DAT",0%
same,brace root injury,"[5]; 4480 g ae/ha of 2,4-D",no brace root injury
same,% Visual Injury 14DAT,"[5]; AAD-12 4101(0)003.R.003.AF, 1120 g ae/ha",0%
same,% Visual Injury 14DAT,"[5]; AAD-12 4101(0)003.R.003.AF, 2240 g ae/ha",0%
same,% Visual Injury 14DAT,"[5]; AAD-12 4101(0)003.R.003.AF, 4480 g ae/ha",0%
same,% Visual Injury 14DAT,"[5]; AAD-12 4101(0)005.001.AF, 1120 g ae/ha",0%
same,% Visual Injury 14DAT,"[5]; AAD-12 4101(0)005.001.AF, 2240 g ae/ha",1%
same,% Visual Injury 14DAT,"[5]; AAD-12 4101(0)005.001.AF, 4480 g ae/ha",1%
same,Brace Root Injury Rating (0-10 scale) 28DAT,"[5]; AAD-12 event 4101(0)003.R.003.AF, 1120 g ae/ha",0
same,Brace Root Injury Rating (0-10 scale) 28DAT,"[5]; AAD-12 event 4101(0)003.R.003.AF, 2240 g ae/ha",0
same,Brace Root Injury Rating (0-10 scale) 28DAT,"[5]; AAD-12 event 4101(0)003.R.003.AF, 4480 g ae/ha",0
same,Brace Root Injury Rating (0-10 scale) 28DAT,"[5]; AAD-12 event 4101(0)005.001.AF, 1120 g ae/ha",0
same,Brace Root Injury Rating (0-10 scale) 28DAT,"[5]; AAD-12 event 4101(0)005.001.AF, 2240 g ae/ha",0
same,Brace Root Injury Rating (0-10 scale) 28DAT,"[5]; AAD-12 event 4101(0)005.001.AF, 4480 g ae/ha",0
"C[C@@H](Oc1ccc(Cl)cc1Cl)C(=O)O [(R)-dichlorprop, R-2,4-dichlorophenoxypropionic acid]",Average % injury 14 DAT,[1]; 280 g ae/ha,15%
same,Average % injury 14 DAT,[1]; 560 g ae/ha,50%
same,Average % injury 14 DAT,[1]; 1120 g ae/ha,70%
same,Average % injury 14 DAT,[3]; 280 g ae/ha,0%
same,Average % injury 14 DAT,[3]; 560 g ae/ha,0%
same,Average % injury 14 DAT,[3]; 1120 g ae/ha,0%
Nc1c(Cl)c(F)nc(OCC(=O)O)c1Cl [Fluroxypyr],Average % injury 14 DAT,[1]; 70 g ae/ha,0%
same,Average % injury 14 DAT,[1]; 140 g ae/ha,0%
same,visual injury,"[2]; Fluroxypyr at 280 g ae/ha, 14DAA",37%
same,% Visual Injury at 14 DAT,[2]; 280 GM AE/HA,37 ab %
same,Average % Injury of Replicates 14 DAT,wildtype KY160 tobacco; 35 g ae/ha,85%
same,Average % Injury of Replicates 14 DAT,wildtype KY160 tobacco; 140 g ae/ha,93%
same,Average % Injury of Replicates 14 DAT,wildtype KY160 tobacco; 560 g ae/ha,100%
same,Average % injury 14 DAT,[3]; 70 g ae/ha,0%
same,Average % injury 14 DAT,[3]; 140 g ae/ha,0%
same,injury,[4]; Fluroxypyr at 280 g ae/ha,99%
same,Average % Injury across locations at 14 DAT,[4]; 280 GM AE/HA,99%
same,% Visual Injury 14DAT,"[5]; AAD-12 4101(0)003.R.003.AF, 280 g ae/ha",1%
same,% Visual Injury 14DAT,"[5]; AAD-12 4101(0)005.001.AF, 280 g ae/ha",5%
same,Brace Root Injury Rating (0-10 scale) 28DAT,"[5]; AAD-12 event 4101(0)003.R.003.AF, 280 g ae/ha",0
same,Brace Root Injury Rating (0-10 scale) 28DAT,"[5]; AAD-12 event 4101(0)005.001.AF, 280 g ae/ha",0
same,brace root injury,[5]; Fluroxypyr at 280 g ae/ha,no brace root injury
same,"visual injury, average","[5]; Fluroxypyr at 280 g ae/ha, 5DAT",8%
O=C(O)COc1nc(Cl)c(Cl)cc1Cl [triclopyr],visual injury,[2]; [6],25%
same,% Visual Injury at 14 DAT,[2]; 840 GM AE/HA,25 cd %
same,Average % Injury of Replicates 14 DAT,wildtype KY160 tobacco; 70 g ae/ha,40%
same,Average % Injury of Replicates 14 DAT,wildtype KY160 tobacco; 280 g ae/ha,65%
same,Average % Injury of Replicates 14 DAT,wildtype KY160 tobacco; 1120 g ae/ha,80%
same,injury,[4]; 2× rate of triclopyr (840 g ae/ha),53%
same,Average % Injury across locations at 14 DAT,[4]; 840 GM AE/HA,53%
same,"visual injury, average across the two events",[5]; [6],3%
same,% Visual Injury 14DAT,"[5]; AAD-12 4101(0)003.R.003.AF, 840 g ae/ha",3%
same,% Visual Injury 14DAT,"[5]; AAD-12 4101(0)005.001.AF, 840 g ae/ha",4%
same,Brace Root Injury Rating (0-10 scale) 28DAT,"[5]; AAD-12 event 4101(0)003.R.003.AF, 840 g ae/ha",0
same,Brace Root Injury Rating (0-10 scale) 28DAT,"[5]; AAD-12 event 4101(0)005.001.AF, 840 g ae/ha",0
same,brace root injury,[5]; Triclopyr at 840 g ae/ha,no brace root injury
